Assay [1] has as its target T1, MK2 (Homo sapiens, UniProt P49137). Nature of the assay: MK2 degradation in human THP-1 monocytic cells (MSD, 24 h). The format is cell-based. Set-up: endogenous in cells. To be noted: for Dmax: THP-1, THP-1 cells; for DC50: THP-1 cells, read-out: MK2 MSD THP-1 degradation 24 h GMean External Abs DC50. The method, boiled down:
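THP-1 cells (200,000/well) treated 24 h at 37 °C with compound dilution series (up to 10 points, 0.1% DMSO). MK2 in RIPA lysates quantified by MSD sandwich immunoassay. DC50 from 4-parameter logistic fit, DMSO-treated cells as high and lysis buffer as low signal.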

For assay [2], the target named is T1, MK2. Nature of the assay: MK2 degradation in human SW1353 cells (MSD, 24 h). The format is cell-based. As to conditions: for Dmax: read-out: MK2 MSD SW 1353 24 h Dmax %; for DC50: read-out: MK2 MSD SW1353 degradation 24 h GMean External Abs DC50. Details: endogenous in cells; host or cells: SW-1353 (ATCC HTB-94); key to MK2 MSD SW1353 degradation 24 h GMean External Abs DC50: A (<0.001 μM); B (0.001-0.01 μM); C (0.01-0.1 μM); D (>0.1 μM); —: “-”=not tested or inactive; key to MK2 MSD SW 1353 24 h Dmax %: —: “-”=not tested or inactive. The method, boiled down: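 SW1353 chondrosarcoma cells were treated with up to 10-point serial dilutions (0.1% DMSO) for 24 h at 37 °C, then lysed in RIPA buffer. MK2 levels were quantified by MSD sandwich immunoassay; DC50 came from a 4-parameter logistic fit normalised to DMSO-treated cells (high) and lysis buffer (low).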

T1 sequence (P49137 whole entry): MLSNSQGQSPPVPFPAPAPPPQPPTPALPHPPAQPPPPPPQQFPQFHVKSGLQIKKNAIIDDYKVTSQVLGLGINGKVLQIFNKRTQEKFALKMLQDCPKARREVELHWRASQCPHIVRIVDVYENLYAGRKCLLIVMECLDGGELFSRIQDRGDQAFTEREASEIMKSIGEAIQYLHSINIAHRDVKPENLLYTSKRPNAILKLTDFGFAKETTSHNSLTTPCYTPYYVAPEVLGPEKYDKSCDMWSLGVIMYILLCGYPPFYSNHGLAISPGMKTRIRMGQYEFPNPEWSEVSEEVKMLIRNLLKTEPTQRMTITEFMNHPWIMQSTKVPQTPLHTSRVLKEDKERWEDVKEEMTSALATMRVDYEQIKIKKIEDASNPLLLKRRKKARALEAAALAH

For `C[C@@H]1CNc2c(sc3ccc4nc(-c5ccc(N6CCN(CC7CCN(c8cccc(C9CCC(=O)NC9=O)c8)CC7)CC6)nc5)ccc4c23)C(=O)N1` (stereo partly drawn) [Compound I-420], at MK2 [1], the Dmax is more than 75% and the DC50 fell in the range of 1 to 10 nM. On MK2 [2], the Dmax was more than 75% and the DC50 lay in the range of 1 to 10 nM.
As to `C[C@@H]1CNc2c(sc3ccc4nc(-c5ccc(N6CCC(CN7CCC(c8cccc9c(N%10CCC(=O)NC%10=O)cncc89)CC7)CC6)cc5)ccc4c23)C(=O)N1` [Compound I-311], at MK2 [1], the Dmax was more than 75% and the DC50 fell in the range of 1 to 10 nM. Also, on MK2 [2], the Dmax was more than 75% and the DC50 was in the range of 1 to 10 nM.
As to `CCc1cc(-c2cc(-c3cc4c([nH]3)C3(CC3)CNC4=O)ccn2)cc(CC)c1N1CCN(CC2CCN(c3ccc4c(c3)n(C)c(=O)n4C3CCC(=O)NC3=O)CC2)CC1` (stereo not drawn) [Compound I-448], at MK2 [1], the Dmax is less than 50% and the DC50 was more than 100 nM. Besides, at MK2 [2], the Dmax was in the range of 50 to 75% and the DC50 lay within 1 to 10 nM.
The corresponding values for `C[C@@H]1CNc2c(sc3ccc4nc(-c5ccnc(N6CCN(CC7CCN(c8cccc9c8n(C)c(=O)n9C8CCC(=O)NC8=O)CC7)CC6)c5)ccc4c23)C(=O)N1` (stereo partly drawn) [Compound I-276] are more than 75%, 1 to 10 nM, more than 75% and 1 to 10 nM.
As for `C[C@@H]1CNc2c(sc3ccc4nc(-c5ccc(N6CCN(C(=O)COCCOCCOCCOCCc7ccc8c(c7)n(C)c(=O)n8C7CCC(=O)NC7=O)CC6)cc5)ccc4c23)C(=O)N1` (stereo partly drawn) [Compound I-43], the Dmax on MK2 [1] and on MK2 [2] was more than 75% in each case. The DC50 on MK2 [1] and at MK2 [2] was less than 1 nM in each case.
Turning to `Cn1c(=O)n(C2CCC(=O)NC2=O)c2cccc(CCCCCN3CCN(c4ccc(F)c(-c5cc(-c6cc7c([nH]6)CCNC7=O)ccn5)c4)CC3)c21` (stereo not drawn) [Compound I-134], the Dmax on MK2 [1] and at MK2 [2] was less than 50% throughout. For the same compound, the DC50 at MK2 [1] and on MK2 [2] was more than 100 nM throughout.
Regarding `C[C@@H]1CNc2c(sc3ccc4nc(N5CCN(CC6CCN(c7cccc8c7n(C)c(=O)n8C7CCC(=O)NC7=O)CC6)CC5)ccc4c23)C(=O)N1` (stereo partly drawn) [Compound I-196], at MK2 [1], the Dmax was more than 75% and the DC50 is 1 to 10 nM. On MK2 [2], the “MK2 MSD SW 1353 24 h Dmax %” value was “—” and the “MK2 MSD SW1353 degradation 24 h GMean External Abs DC50” value was “—”.
Consider `C[C@@H]1CNc2c(sc3ccc4nc(N5CCCN(C6CC7(CCN(c8ccc9c(c8)n(C)c(=O)n9C8CCC(=O)NC8=O)CC7)C6)CC5)ccc4c23)C(=O)N1` (stereo partly drawn) [Compound I-411], for which, at MK2 [1], the Dmax lay within 50 to 75% and the half-maximal degradation concentration (DC50) was 10 to 100 nM. In addition, on MK2 [2], the Dmax fell in the range of 50 to 75% and the 50% degradation concentration (DC50) was in the range of 1 to 10 nM.
With `C[C@@H]1CNc2c(sc3ccc4nc(-c5ccc(N6CCC(CN7CCN(c8cccc9c8n(C)c(=O)n9C8CCC(=O)NC8=O)CC7)CC6)cc5)ccc4c23)C(=O)N1` (stereo partly drawn) [Compound I-315], the greatest degradation seen (Dmax) on MK2 [1] and on MK2 [2] was more than 75% in each case. For the same compound, the DC50 on MK2 [1] and at MK2 [2] was 1 to 10 nM throughout.
In the case of `C[C@@H]1CNc2c(sc3ccc4nc(-c5ccc(N6CCN(CCc7ccc8c(c7)n(C)c(=O)n8C7CCC(=O)NC7=O)CC6)nc5)ccc4c23)C(=O)N1` (stereo partly drawn) [Compound I-279], on MK2 [1], the Dmax is more than 75% and the DC50 is less than 1 nM. At MK2 [2], the Dmax is more than 75% and the DC50 was less than 1 nM.
For the compound `Cn1c(=O)n(C2CCC(=O)NC2=O)c2ccc(N3CC(CN4CCN(c5ccc(-c6nccc(-c7cc8c([nH]7)C7(CCCC7)CNC8=O)n6)cc5)CC4)C3)cc21` (stereo not drawn) [Compound I-405], on MK2 [1], the Dmax was more than 75% and the DC50 was less than 1 nM. Moreover, on MK2 [2], the Dmax is more than 75% and the DC50 was less than 1 nM.
Regarding `C[C@@H]1CNc2c(sc3ccc4nc(N5C6CCC5CN(CC5CCN(c7ccc8c(c7)n(C)c(=O)n8C7CCC(=O)NC7=O)CC5)C6)ccc4c23)C(=O)N1` (stereo partly drawn) [Compound I-434], on MK2 [1], the Dmax is less than 50% and the 50% degradation concentration (DC50) was more than 100 nM. On MK2 [2], the Dmax was less than 50% and the DC50 was more than 100 nM.

For the origin of these results see US20230135894A1, “MK2 DEGRADERS AND USES THEREOF” (Kymera Therapeutics, Inc., priority 2021, published 2023).
